What was measured:
[1] = tested on: PARP activity in SCC-25 cells; assay: NAD assay: NAD; format: cell-based; conditions: pretreated with 1mM compound, MNNG 5μg/mL for 30 minutes (Figure 2C)
[2] = molecular target: T1, PARG (Bos taurus, UniProt O02776); conditions: previous study; cited from earlier work
[3] = molecular target: T1, PARG; assay: PARG assay; format: biochemical; conditions: SAR discussion in text
[4] = molecular target: PARP-1 (Homo sapiens, UniProt P09874); conditions: previous study; cited from earlier work
[5] = tested on: PARG activity in SCC-25 cells; assay: PAR assay: PAR formation/turnover in SCC-25 cells after MNNG; format: cell-based

T1 sequence (O02776 385-977): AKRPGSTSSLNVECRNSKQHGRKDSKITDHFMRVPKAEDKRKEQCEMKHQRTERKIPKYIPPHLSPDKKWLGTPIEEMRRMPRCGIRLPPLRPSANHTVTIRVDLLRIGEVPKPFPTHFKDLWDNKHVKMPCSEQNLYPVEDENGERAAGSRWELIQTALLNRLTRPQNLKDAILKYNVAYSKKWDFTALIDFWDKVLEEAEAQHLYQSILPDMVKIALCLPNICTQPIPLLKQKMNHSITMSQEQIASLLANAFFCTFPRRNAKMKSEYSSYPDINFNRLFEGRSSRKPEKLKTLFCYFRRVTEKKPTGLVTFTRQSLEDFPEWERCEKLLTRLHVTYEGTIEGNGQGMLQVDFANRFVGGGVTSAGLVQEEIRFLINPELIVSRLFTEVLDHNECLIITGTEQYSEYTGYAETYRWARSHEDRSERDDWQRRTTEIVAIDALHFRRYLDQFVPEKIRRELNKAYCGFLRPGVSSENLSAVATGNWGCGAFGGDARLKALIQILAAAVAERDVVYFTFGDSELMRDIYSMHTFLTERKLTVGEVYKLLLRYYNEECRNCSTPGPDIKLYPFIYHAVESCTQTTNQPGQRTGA
Chain of PARP-1 (P09874 whole entry): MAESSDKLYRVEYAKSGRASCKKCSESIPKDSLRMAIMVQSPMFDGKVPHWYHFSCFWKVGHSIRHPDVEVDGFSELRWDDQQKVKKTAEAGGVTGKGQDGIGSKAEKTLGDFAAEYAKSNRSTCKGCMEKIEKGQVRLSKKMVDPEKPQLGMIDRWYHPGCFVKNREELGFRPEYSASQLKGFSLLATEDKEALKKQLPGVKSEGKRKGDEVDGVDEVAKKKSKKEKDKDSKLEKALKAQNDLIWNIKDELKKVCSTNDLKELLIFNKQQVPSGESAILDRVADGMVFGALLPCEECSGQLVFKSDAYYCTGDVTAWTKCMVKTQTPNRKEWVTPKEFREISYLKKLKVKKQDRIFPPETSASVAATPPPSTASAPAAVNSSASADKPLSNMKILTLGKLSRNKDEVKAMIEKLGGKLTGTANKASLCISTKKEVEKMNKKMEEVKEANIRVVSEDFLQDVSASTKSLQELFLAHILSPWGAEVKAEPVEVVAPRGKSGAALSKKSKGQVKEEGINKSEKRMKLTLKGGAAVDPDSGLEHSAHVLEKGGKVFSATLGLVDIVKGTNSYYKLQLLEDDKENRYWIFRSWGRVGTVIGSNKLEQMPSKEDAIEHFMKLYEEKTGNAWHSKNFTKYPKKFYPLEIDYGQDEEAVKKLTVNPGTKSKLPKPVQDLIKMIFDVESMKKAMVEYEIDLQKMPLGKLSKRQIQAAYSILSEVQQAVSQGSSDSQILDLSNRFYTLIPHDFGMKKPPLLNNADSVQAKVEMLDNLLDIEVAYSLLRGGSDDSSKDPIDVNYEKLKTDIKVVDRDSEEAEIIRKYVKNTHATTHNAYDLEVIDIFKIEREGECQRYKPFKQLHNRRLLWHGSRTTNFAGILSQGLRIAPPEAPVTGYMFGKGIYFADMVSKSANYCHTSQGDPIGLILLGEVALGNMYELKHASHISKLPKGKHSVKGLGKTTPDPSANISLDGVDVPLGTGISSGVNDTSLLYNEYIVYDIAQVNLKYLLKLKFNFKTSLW

PARG inhibition (in words) [3]	Structure (SMILES)	inhibition of NAD(H) depletion (in words) [1]	also measured
	NC(=O)c1ccccc1 [Benzamide, benzamide, reference compound]	complete inhibition of NAD(H) depletion	inhibition of PARG (in words) [2]: does not inhibit PARG
loss of PARG inhibition	Oc1c(Cl)cc(Cl)cc1CNc1ccc(Oc2ccc3ccccc3c2)c(Cl)c1 [Compound 10, 2,4-dichloro-6-((3-chloro-4-(naphthalen-2-yloxy)phenylamino)methyl)phenol]		
not enough to detect PARG inhibition	O=C(Nc1ccccc1)c1cc(Cl)cc(Cl)c1O [Compound 8h, 3,5-dichloro-2-hydroxy-N-benzamide]		
PARG inhibition was retained	O=C(O)c1ccccc1C(=O)Nc1ccc(Oc2ccc3ccccc3c2)c(Cl)c1 [Compound 6g, 2-(3-chloro-4-(naphthalen-2-yloxy)phenylcarbamoyl)benzoic acid]		
loss of detectable PARG inhibition	NC(=O)c1cc(Cl)cc(Cl)c1O [Compound 7, 3,5-dichloro-2-hydroxybenzamide]	minimal effect	
loss of detectable PARG inhibition	COc1c(Cl)cc(Cl)cc1C(=O)Nc1ccc(Oc2ccc3ccccc3c2)c(Cl)c1 [Compound 6f, 3,5-dichloro-N-(3-chloro-4-(naphthalen-2-yloxy)phenyl)-2-methoxybenzamide]		
loss of PARG inhibition	Oc1c(Cl)cc(Cl)cc1/C=N/c1ccc(Oc2ccc3ccccc3c2)c(Cl)c1 [Compound 9, 2,4-dichloro-6-((3-chloro-4-(naphthalen-2-yloxy)phenylimino)methyl)phenol]		
complete loss of PARG inhibition	O=C(Nc1ccc(O)c(Cl)c1)c1cc(Cl)cc(Cl)c1O [Compound 8a, 3,5-dichloro-N-(3-chloro-4-hydroxyphenyl)-2-hydroxybenzamide]		
	Nc1ncnc2c1ncn2[C@@H]1O[C@H](COP(=O)(O)OP(=O)(O)OC[C@H]2NC[C@H](O)[C@@H]2O)[C@@H](O)[C@H]1O [ADP-HPD, adenosine 5′-diphosphate (hydroxymethyl) pyrrolidinediol]		inhibition of PARP-1 (in words) [4]: does not inhibit PARP-1
loss of detectable inhibition of PARG	O=C(Nc1ccc(Oc2ccc3ccccc3c2)c(Cl)c1)c1cc(Cl)cc(Cl)c1 [Compound 6b, 3,5-dichloro-N-(3-chloro-4-(naphthalen-2-yloxy)phenyl)benzamide]	minimal effect	
	O=C(Nc1ccc(Oc2ccc3ccccc3c2)c(Cl)c1)c1cc(Cl)cc(Cl)c1O [Compound 6a, 3,5-dichloro-N-(3-chloro-4-(naphthalen-2-yloxy)phenyl)-2-hydroxybenzamide]	partial inhibition of NAD(H) consumption	increase of PAR accumulation at 10 min ([5]; SCC-25 cells pre-incubated with 1mM compound, MNNG 5μg/mL (Figure 3B)): approximately 3 fold; inhibition of PARG in intact cells (in words) ([5]; SCC-25 cells, 1mM compound, MNNG 5μg/mL): nearly complete inhibition of PARG

Structure (SMILES)	PARG inhibition (in words) [3]	inhibition of NAD(H) depletion (in words) [1]	also measured
O=C(Nc1ccccc1Cl)c1cc(Cl)cc(Cl)c1O [Compound 8b, 3,5-dichloro-N-(2-chlorophenyl)-2-hydroxybenzamide]	slight loss of potency		
O=C(Nc1cccc(Cl)c1)c1cc(Cl)cc(Cl)c1O [Compound 8c, 3,5-dichloro-N-(3-chlorophenyl)-2-hydroxybenzamide]	PARG inhibition returned although at low potency		
O=C(Nc1ccc(Cl)cc1)c1cc(Cl)cc(Cl)c1O [Compound 8d, 3,5-dichloro-N-(4-chlorophenyl)-2-hydroxybenzamide]	slight loss of potency	partial inhibition of NAD(H) consumption	

— PMC3150619 (Journal of medicinal chemistry, 2011)
